The results in this text go back to ChEMBL document CHEMBL5576096, “Triplinones A-H: Anti-Inflammatory Arylalkenyl α,β-Unsaturated-δ-Lactones Isolated from the Leaves of Australian Rainforest Plant Cryptocarya triplinervis (Lauraceae)” (J Nat Prod, 2024).

Where only a bound is given, the exact number is not on record here.

The nature of data set [1]: Cytotoxicity against LPS/IFNgamma-stimulated mouse RAW264.7 cells assessed as reduction in cell viability after 24 hrs by Alamar Blue assay. In kind it is toxicity, cell-based. The note with it: LPS/IFNgamma-stimulated RAW264.7 cells, read-out: LC50. A general note: Alamar Blue is a resazurin reagent that responds to reducing activity.
The subject of data set [2] is RAW264.7. As to the kind of experiment: Inhibition of NO production in LPS/IFNgamma-stimulated mouse RAW264.7 cells preincubated for 1 hr followed by LPS/IFNgamma addition and measured after 24 hrs by griess reagent based assay. It counts as functional, cell-based.
Data set [3] can be described thus: Inhibition of TNF-alpha production in LPS/IFNgamma-stimulated mouse RAW264.7 cells preincubated for 1 hr followed by LPS/IFNgamma addition and measured after 24 hrs by ELISA. In kind it is functional, cell-based. For orientation: An ELISA detects its analyte on a solid surface through an enzyme-linked reagent.
Data set [4] is described as follows: Therapeutic index, ratio of LC50 for cytotoxicity against LPS/IFNgamma-stimulated mouse RAW264.7 cells to IC50 for inhibition of NO production in LPS/IFNgamma-stimulated mouse RAW264.7 cells. It counts as toxicity, cell-based. The note with it: LPS/IFNgamma-stimulated RAW264.7 cells, read-out: Ratio LC50/IC50.

What is called IC50 is the concentration that gives 50% inhibition.

Consider `O=C1C=CC[C@H](CC(O)/C=C/C[C@H](O)C[C@@H](O)CC/C=C/c2ccccc2)O1` (stereo partly specified), for which the CC50 at 24 h in data set [1] worked out at 159 µM. The IC50 worked out at 64.7 µM in data set [2] and 39.1 µM in data set [3]. The selectivity ratio in data set [4] came out at 2.5.
On the same counts, the results for `O=C1C=CC[C@H](C[C@@H](O)CCC[C@H](O)C[C@@H](O)CC/C=C/c2ccccc2)O1` are 41.3 µM, 15 µM, 28.9 µM and 2.8.
Turning to `CC(=O)O[C@H](C[C@@H](O)CC/C=C/c1ccccc1)C[C@H]1CC=CC(=O)O1`, the CC50 at 24 h in data set [1] stood at 97.9 µM. Also, the figures for the half-maximal inhibitory concentration (IC50) in data set [2] and in data set [3] were 10.3 µM and 17.1 µM, respectively. In addition, the selectivity ratio in data set [4] is 9.5.
For `O=C1C=CC[C@H](/C=C/C[C@H](O)C[C@@H](O)CC/C=C/c2ccccc2)O1`, in that order: 79.8 µM, 7.3 µM, 28.3 µM and 10.9.
For `COc1cc(/C=C/C(=O)CC(=O)/C=C/c2ccc(O)c(OC)c2)ccc1O` [CURCUMIN], in that order: 73 µM, 22.5 µM, 31.2 µM and 3.2.
For `O=C1C=CC[C@H](/C=C/C=C/C[C@H](O)C[C@@H](O)CC/C=C/c2ccccc2)O1`, in that order: 41.3 µM, 5.4 µM, 27.9 µM and 7.6.
With `O=C1C=CC[C@H](C[C@@H](O)C[C@H](O)C[C@@H](O)CC/C=C/c2ccccc2)O1`, the CC50 at 24 h in data set [1] was more than 278 µM. Moreover, the IC50 is 102 µM in data set [2] and more than 278 µM in data set [3]. Further, the selectivity ratio in data set [4] is more than 2.7.
As for `O=C1C=CC[C@H](CCC[C@H](O)C[C@@H](O)CC/C=C/c2ccccc2)O1`, in data set [1], the CC50 at 24 h is 33.4 µM. Besides, the IC50 is 6 µM in data set [2] and 27.4 µM in data set [3]. Further, in data set [4], the selectivity ratio was determined as 5.6.
For `O=C1C=CC[C@H](C[C@H](O)C[C@@H](O)CC/C=C/c2ccccc2)O1`, in that order: 37.6 µM, 5.6 µM, 29.4 µM and 6.8.
